In US10675275B2, “Prophylactic and/or therapeutic agent for fibromyalgia” (ONO PHARMACEUTICAL CO., LTD., priority 2015, dated 2020):
Structures can show the parent of a compound that is named as a salt.

Test system: rat somatic hyperalgesia model
Assay: Efficacy in a rat somatic hyperalgesia model (acid saline, Randall-Selitto pain threshold)
Type: in vivo
Details: SD male rats, right hind paw (non-challenged side), oral
Protocol: SD male rats (Charles River Laboratories Japan, Inc., 5 weeks old upon usage) were used. Under isoflurane anaesthesia, rats were intramuscularly administered with 100 μL of acidic saline of pH 4.0 in the left gastrocnemius. After 5 days of administration, rats again received 100 μL of acid saline in the left gastrocnemius. In the normal group, rats were intramuscularly administered with 100 μL of saline twice in total with 5 days apart in the left gastrocnemius (see Muscle Nerve, vol. 24, pp. 37-46, 2001).
The pain threshold was measured on a Randall-Selitto pressure analgesy-meter (Ugo Basile). Briefly, rats were securely fixed and uniformly and continuously increasing pressure was applied to the hind paws. […] For each of the left and right hind paws, tests were carried out three times at each evaluation point and the values were averaged to obtain the pain threshold.
For the normal group, rats were arbitrarily selected from those showing the pain threshold on the day before the first administration of acid saline of 140 g or more for both left and right hind paws. After being divided into groups, administration of the test compound (the present compound (the compound described in Example 38 of PTL 1), comparative compound A (the compound described in Example 38(5) of PTL 1), comparative compound B (the compound described in Example 41(2) of PTL 1), comparative compound C (1-(2-chlorophenyl)-N-methyl-N-(1-methylpropyl)isoquinoline-3-carboxamide (PK11195), CAS registry No.: 85532-75-8), a control substance (duloxetine hydrochloride, pregabalin) or a vehicle (0.5 w/v % methylcellulose 400 cP solution)) was started on the same day. On day 1 and day 7 of administration of each drug solution, the pain threshold on left and right hind paws was measured in a blind manner 2 hours after the first administration. Duloxetine hydrochloride was orally administered once a day and other agents were orally administered twice a day.

CCC(C)N(C)C(=O)c1cc2ccccc2c(-c2ccccc2Cl)n1 (centres unmarked) [comparative compound C, 1-(2-chlorophenyl)-N-methyl-N-(1-methylpropyl)isoquinoline-3-carboxamide]
pain threshold (efficacy for the pain threshold decreased in the control group) (day 7, before and 2 hours after administration, 1 mg/kg, twice a day): did not show the efficacy

CNCC[C@H](Oc1cccc2ccccc12)c1cccs1 [duloxetine hydrochloride]
pain threshold (suppression of the decrease caused by acid saline) (day 7, before and 2 hours after administration, 30 mg/kg, once a day): suppressed this decrease of the pain threshold

CC(C)C[C@H](CN)CC(=O)O [pregabalin]
pain threshold (suppression of the decrease caused by acid saline) (day 7, before and 2 hours after administration, 20 mg/kg, twice a day): suppressed this decrease of the pain threshold

COc1cc(Cl)ccc1[C@H]1c2[nH]c3cccc(F)c3c2C2(CC2)CN1C(C)=O [the present compound, (1S)-2-acetyl-1-(4-chloro-2-methoxyphenyl)-5-fluoro-1,2,3,9-tetrahydrospiro[β-carboline-4,1′-cyclopropane]]
pain threshold (suppression of the decrease caused by acid saline) (day 7 of administration, before and 2 hours after administration, 0.1, 1 or 10 mg/kg, twice a day): significant suppression
pain threshold (suppression of the decrease caused by acid saline) (day 7 of administration, before and 2 hours after administration, 0.1, 1 or 10 mg/kg, twice a day, listed as The present compound): suppressed this decrease of the pain threshold
